Drawing on US20230416268A1, “PYRIMIDINONE-CONTAINING 17-BETA-HYDROXYSTEROID DEHYDROGENASE TYPE 13 INHIBITORS” (ENANTA PHARMACEUTICALS, INC., priority 2022, published 2023), this text covers IC50 for 61 molecules.

In general, IC50 refers to the concentration needed to halve the response being measured.

Where only a bound is given, the exact number is not on record here.

Recombinant human 17β-HSD13, sequence (Q7Z5P4 20-300): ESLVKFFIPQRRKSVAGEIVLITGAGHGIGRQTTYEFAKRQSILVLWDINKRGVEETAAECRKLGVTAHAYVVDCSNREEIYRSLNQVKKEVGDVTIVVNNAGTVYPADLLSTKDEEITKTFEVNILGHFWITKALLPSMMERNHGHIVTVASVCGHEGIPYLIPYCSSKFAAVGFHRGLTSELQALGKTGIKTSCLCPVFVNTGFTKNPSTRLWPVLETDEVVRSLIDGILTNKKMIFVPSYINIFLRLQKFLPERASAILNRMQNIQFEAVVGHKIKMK

The assay deals with Recombinant human 17β-HSD13 (Homo sapiens (Human), UniProt Q7Z5P4). In words: 17β-HSD13 rapid-fire mass spectrometry assay (RF/MS assay). Type of assay: biochemical. Conditions: HSD17B13 80 nM, LTB4 10 μM, NAD+ 0.5 mM, RT 3 h, RF/MS readout. The protocol:
17β-HSD13 rapid-fire mass spectrometry assay (RF/MS assay). Recombinant human 17β-HSD13 was expressed and purified from sf9 cells at Charles River Labs (Saffron Walden, UK). […] The assays were quenched by adding 20 μL of 0.15% aqueous formic acid and the plates were frozen at −80° C. RF/MS analysis was performed at PureHoney Technologies (Billerica, MA) on a RapidFire RF300 system (Agilent Technologies, Inc.) coupled to an API 4000 triple quadrupole mass spectrometer (Sciex) equipped with Agilent RapidFire cartridge type A (C4). The mobile phase was 0.09% formic acid and 0.01% trifluoracetic acid in water (Buffer A) and 0.09% formic acid and 0.01% trifluoracetic acid in 80% aqueous acetonitrile (Buffer B). The RapidFire method conditions were the following: 250 ms aspirate, 3000 ms load/desalt, 4000 ms elute, and 500 ms re-equilibrate. RF-MS/MS was performed in negative polarity (−4500 V), the source temperature was 650° C., and gas 1 and gas 2 settings for nitrogen were set to 50. The curtain gas and collision gas were also nitrogen and were set to 20 and 12, respectively.
Data Analysis. 17β-HSD13 enzyme activity was measured as percent conversion of extracted ion counts and normalized to high and low controls to determine percent residual activity at various concentrations of test compounds. Data were fitted to normalized activity (variable slope) versus concentration fit in GraphPad Prism 7 to determine IC50. All experiments were run in duplicates.
Consider `COc1ccc(-c2nc3sc4c(OC(C)=O)cccc4c3c(=O)n2Cc2cnco2)c(C2CC2)c1` [Example 1, 2-(2-cyclopropyl-4-methoxyphenyl)-3-(oxazol-5-ylmethyl)-4-oxo-3,4-dihydrobenzo[4,5]thieno[2,3-d]pyrimidin-8-yl acetate], for which the IC50 was in the range of 100 to 1000 nM.
The value for `CCC(=O)Oc1cccc2c1sc1nc(-c3ccc(OC)cc3C3CC3)n(Cc3cnco3)c(=O)c12` [Example 2, 2-(2-cyclopropyl-4-methoxyphenyl)-3-(oxazol-5-ylmethyl)-4-oxo-3,4-dihydrobenzo[4,5]thieno[2,3-d]pyrimidin-8-yl propionate] was under 100 nM.
In the case of `COc1ccc(-c2nc3sc4c(OC(=O)c5ccccc5)cccc4c3c(=O)n2Cc2cnco2)c(C2CC2)c1` [Example 3, 2-(2-cyclopropyl-4-methoxyphenyl)-3-(oxazol-5-ylmethyl)-4-oxo-3,4-dihydrobenzo[4,5]thieno[2,3-d]pyrimidin-8-yl benzoate] it was 100 to 1000 nM.
Take `O=c1c2c(nc(-c3ccc4c(c3)OCCO4)n1Cc1ccccc1)sc1c(O)cccc12` [Example 4]: the IC50 lay in the range of 100 to 1000 nM.
For the molecule `CC(C)(C)c1ccc(-c2nc3sc4c(O)cccc4c3c(=O)n2Cc2ccccc2)cc1` [Example 5], the 50% inhibitory concentration (IC50) is over 10000 nM.
With `O=c1c2c(nc(-c3ccc4c(c3)OCO4)n1Cc1ccccc1)sc1c(O)cccc12` [Example 6], the IC50 is over 10000 nM.
As for `CC(C)Oc1ccc(-c2nc3sc4c(O)cccc4c3c(=O)n2Cc2ccccc2)cc1` [Example 7], the half-inhibitory concentration (IC50) is over 10000 nM.
Turning to `COc1ccc(-c2nc3sc4c(O)cccc4c3c(=O)n2Cc2ccccc2)c(Br)c1` [Example 8], the IC50 lay in the range of 100 to 1000 nM.
The value for `COc1ccc(-c2nc3sc4c(O)cccc4c3c(=O)n2Cc2ccccc2)c(C2CC2)c1` [Example 9] was under 100 nM; that for `COc1ccc(-c2nc3sc4c(O)cccc4c3c(=O)n2Cc2ccncc2)c(C2CC2)c1` [Example 10] was under 100 nM; that for `COc1ccc(-c2nc3sc4c(O)cccc4c3c(=O)n2Cc2ccnc(C)c2)c(C2CC2)c1` [Example 12] was under 100 nM.
Consider `COc1ccc(-c2nc3sc4c(O)cccc4c3c(=O)n2Cc2ccnc(Cl)c2)c(C2CC2)c1` [Example 13], for which the 50% inhibitory concentration (IC50) is under 100 nM.
The value for `COc1ccc(-c2nc3sc4c(O)cccc4c3c(=O)n2Cc2cn[nH]c2)c(C2CC2)c1` [Example 14] was under 100 nM; that for `COc1ccc(-c2nc3sc4c(O)cccc4c3c(=O)n2Cc2cncs2)c(C2CC2)c1` [Example 15] was under 100 nM.
Consider `COc1ccc(-c2nc3sc4c(O)cccc4c3c(=O)n2Cc2nnn(C)n2)c(C2CC2)c1` [Example 16], for which the IC50 was under 100 nM.
`COc1ccc(-c2nc3sc4c(O)cccc4c3c(=O)n2CCN2CCOCC2)c(C2CC2)c1` [Example 17]: the half-inhibitory concentration (IC50) was under 100 nM.
With `COc1ccc(-c2nc3sc4c(O)cccc4c3c(=O)n2CCN2CCN(C)CC2)c(C2CC2)c1` [Example 18], the IC50 was under 100 nM.
Take `COc1ccc(-c2nc3sc4c(O)cccc4c3c(=O)n2CCN2CCNCC2)c(C2CC2)c1` [Example 19]: the IC50 is under 100 nM.
With `COc1ccc(-c2nc3sc4c(O)cccc4c3c(=O)n2CCN2CCCCC2)c(C2CC2)c1` [Example 20], the IC50 is under 100 nM.
Take `COc1ccc(-c2nc3sc4c(O)cccc4c3c(=O)n2CCNCc2ccncc2)c(C2CC2)c1` [Example 21]: the 50% inhibitory concentration (IC50) is under 100 nM.
Regarding `COc1ccc(-c2nc3sc4c(O)cccc4c3c(=O)n2CCNCc2ccccn2)c(C2CC2)c1` [Example 22], the IC50 was under 100 nM.
In the case of `COc1ccc(-c2nc3sc4c(O)cccc4c3c(=O)n2CCNCc2cccnc2)c(C2CC2)c1` [Example 23] it was under 100 nM; in that of `COc1ccc(-c2nc3sc4c(O)cccc4c3c(=O)n2CCN2CCC(O)CC2)c(C2CC2)c1` [Example 24], under 100 nM.
For the molecule `COc1ccc(-c2nc3sc4c(O)cccc4c3c(=O)n2CCN(C)C)c(C2CC2)c1` [Example 25], the IC50 is under 100 nM.
Turning to `COc1ccc(-c2nc3sc4c(O)cccc4c3c(=O)n2CCN(C)Cc2ccncc2)c(C2CC2)c1` [Example 26], the IC50 was under 100 nM.
Regarding `COc1ccc(-c2nc3sc4c(O)cccc4c3c(=O)n2CCN(C)Cc2cccnc2)c(C2CC2)c1` [Example 27], the half-maximal inhibitory concentration (IC50) is under 100 nM.
Consider `COc1ccc(-c2nc3sc4c(O)cccc4c3c(=O)n2CCNCc2cnccn2)c(C2CC2)c1` [Example 28], for which the half-maximal inhibitory concentration (IC50) is under 100 nM.
On to `COc1ccc(-c2nc3sc4c(O)cccc4c3c(=O)n2CCNCc2cnc(OC)nc2)c(C2CC2)c1` [Example 29], for which the IC50 is under 100 nM.
As for `COc1ccc(-c2nc3sc4c(O)cccc4c3c(=O)n2CCNCc2cn[nH]c2)c(C2CC2)c1` [Example 30], the IC50 was under 100 nM.
For the molecule `COc1ccc(-c2nc3sc4c(O)cccc4c3c(=O)n2CCNCc2cncs2)c(C2CC2)c1` [Example 32], the IC50 is under 100 nM.
In the case of `COc1ccc(-c2nc3sc4c(OC(=O)[C@H](C)N)cccc4c3c(=O)n2Cc2cncs2)c(C2CC2)c1` [Example 33] it was under 100 nM.
With `COc1ccc(-c2nc3sc4c(O)cccc4c3c(=O)n2CCNCc2nnn[nH]2)c(C2CC2)c1` [Example 34], the 50% inhibitory concentration (IC50) was under 100 nM.
With `COc1ccc(-c2nc3sc4c(O)cccc4c3c(=O)n2CCOC(=O)N2CCOCC2)c(C2CC2)c1` [Example 35], the concentration for half-maximal inhibition (IC50) was under 100 nM.
Turning to `COc1ccc(-c2nc3sc4c(O)cccc4c3c(=O)n2C/C=C/COC(=O)N(C)C)c(C2CC2)c1` [Example 36], the half-maximal inhibitory concentration (IC50) was under 100 nM.
On to `COc1ccc(-c2nc3sc4c(O)cccc4c3c(=O)n2C/C=C/COc2ccncc2)c(C2CC2)c1` [Example 37], for which the concentration for half-maximal inhibition (IC50) is under 100 nM.
For `COc1ccc(-c2nc3sc4c(O)cccc4c3c(=O)n2CCNC(=O)c2ccncc2)c(C2CC2)c1` [Example 38], the IC50 was in the range of 100 to 1000 nM.
The value for `COc1ccc(-c2nc3sc4c(O)cccc4c3c(=O)n2CCNCc2nnnn2C)c(C2CC2)c1` [Example 40] was under 100 nM; that for `COc1ccc(-c2nc3sc4c(O)cccc4c3c(=O)n2CCNCc2nnn(C)n2)c(C2CC2)c1` [Example 41] was under 100 nM; that for `COc1ccc(-c2nc3sc4c(O)cccc4c3c(=O)n2C/C=C/C(=O)N(C)C)c(C2CC2)c1` [Example 42] was under 100 nM.
In the case of `COc1ccc(-c2nc3sc4c(O)cccc4c3c(=O)n2C/C=C/CO)c(C2CC2)c1` [Example 43], the half-maximal inhibitory concentration (IC50) was under 100 nM.
Turning to `COc1ccc(-c2nc3sc4c(O)cccc4c3c(=O)n2CCN)c(C2CC2)c1` [Example 44], the IC50 was 100 to 1000 nM.
With `COC(=O)NCCn1c(-c2ccc(OC)cc2C2CC2)nc2sc3c(O)cccc3c2c1=O` [Example 45], the IC50 fell in the range of 100 to 1000 nM.
For `O=c1c2c(nc(-c3ccc(F)cc3C3CC3)n1Cc1cncs1)sc1c(O)cccc12` [Example 46], the IC50 is under 100 nM.
Consider `O=c1c2c(nc(-c3ccccc3C3CC3)n1Cc1cncs1)sc1c(O)cccc12` [Example 47], for which the concentration for half-maximal inhibition (IC50) was under 100 nM.
With `CC(C)Oc1ccccc1-c1nc2sc3c(O)cccc3c2c(=O)n1Cc1cncs1` [Example 49], the half-maximal inhibitory concentration (IC50) was under 100 nM.
In the case of `COc1ccc(-c2nc3sc4c(O)cccc4c3c(=O)n2CCNS(=O)(=O)c2ccc(F)cc2)c(C2CC2)c1` [Example 50] it was 100 to 1000 nM; in that of `CCOC(=O)C1CC1Cn1c(-c2ccc(OC)cc2C2CC2)nc2sc3c(O)cccc3c2c1=O` (stereo not shown) [Example 51], under 100 nM.
Turning to `COc1ccc(-c2nc3sc4c(O)cccc4c3c(=O)n2C/C=C/CSc2ccccc2)c(C2CC2)c1` [Example 52], the 50% inhibitory concentration (IC50) was in the range of 100 to 1000 nM.
In the case of `COc1ccc(-c2nc3sc4c(O)cccc4c3c(=O)n2C)c(C2CC2)c1` [Example 53] it was under 100 nM.
The value for `COc1ccc(-c2nc3sc4c(O)cccc4c3c(=O)n2C2CC2)c(C2CC2)c1` [Example 54] was 100 to 1000 nM.
In the case of `COc1ccc(-c2nc3sc4c(O)cccc4c3c(=O)n2C/C=C/CN(C)C)c(C2CC2)c1` [Example 55], the half-maximal inhibitory concentration (IC50) is over 10000 nM.
In the case of `CCn1c(-c2ccc(OC)cc2C2CC2)nc2sc3c(O)cccc3c2c1=O` [Example 56], the IC50 was under 100 nM.
The value for `CCCn1c(-c2ccc(OC)cc2C2CC2)nc2sc3c(O)cccc3c2c1=O` [Example 57] was 100 to 1000 nM; that for `COc1ccc(-c2nc3sc4c(O)cccc4c3c(=O)n2CC(F)(F)F)c(C2CC2)c1` [Example 58] was 100 to 1000 nM; that for `COc1ccc(-c2nc3sc4c(O)cccc4c3c(=O)n2CC2CC2)c(C2CC2)c1` [Example 59] was 100 to 1000 nM.
As to `COc1ccc(-c2nc3sc4c(O)cccc4c3c(=O)n2Cc2cnc(C)s2)c(C2CC2)c1` [Example 60], the concentration for half-maximal inhibition (IC50) was under 100 nM.
For the molecule `CCc1ncc(Cn2c(-c3ccc(OC)cc3C3CC3)nc3sc4c(O)cccc4c3c2=O)s1` [Example 61], the half-inhibitory concentration (IC50) lay in the range of 100 to 1000 nM.
For `COc1ccc(-c2nc3sc4c(O)cccc4c3c(=O)n2Cc2csc(C)n2)c(C2CC2)c1` [Example 62], the IC50 was under 100 nM.
`COc1ccc(-c2nc3sc4c(O)cccc4c3c(=O)n2Cc2ccno2)c(C2CC2)c1` [Example 63]: the IC50 is under 100 nM.
Consider `COc1ccc(-c2nc3sc4c(O)cccc4c3c(=O)n2Cc2cnco2)c(C2CC2)c1` [Example 64], for which the concentration for half-maximal inhibition (IC50) was under 100 nM.
The value for `C=CCn1c(-c2ccc(OC)cc2C2CC2)nc2sc3c(O)cccc3c2c1=O` [Example 65] was under 100 nM.
